Laboratory results as given in patent US11607407B2, “Dermal pharmaceutical compositions of 1-methyl-2′,6′-pipecoloxylidide and method of use” (priority 2010, dated 2023).
Read-outs that look alike come from different tables or passages of the source.

Experiments:
[1] = Effect of formulation pH on flux, Franz-diffusion cell, nylon membrane; type: in vitro ADME; conditions: for Total flux: Mepivacaine 10% w/w, HPMC K4M 3% gel
Description: The influence of pH on the permeability of mepivacaine HCl from a variety of gel dosage forms was evaluated. The in-vitro drug release from gel formulations was studied across the Nylon 6, 6 membrane (0.22 μm) using Franz-diffusion cell with effective surface area of 3.14 cm^2 and receptor cell volume of 18 mL. The receptor compartment was filled with PBS pH 6.8 and maintained at 37±0.5° C. with constant magnetic stirring. 0.3-0.5 gm of gel was placed on the donor compartment. The samples (1 mL) were collected from the receptor compartment (dilutions made if required) at predetermined time interval for a period of 6-8 h and replaced by equal volume of fresh receptor solution to maintain constant volume. The amount of drug in the samples was assayed spectrophotometrically at 263 nm against appropriate blank. Studies were carried using HPMC K4M 3% as gelling agent with or without containing carvone (0.5%) as a penetration enhancer, so as to assess the effects of pH per se and pH in the presence of penetration enhancers. When Carbopol 3% was used as gelling agent, it gets precipitated out at pH below 5. HPMC gel formulations at pH 8.5 result in precipitation of mepivacaine from the gel. […] The maximum flux was obtained at pH 7.5.

[2] = Solubility of mepivacaine base in formulation solvents; type: physicochemical; conditions: 2.5 g in 2.5 g of propylene glycol
Source text: 2.5 g Mepivacaine base was suspended in 2.5 g of propylene glycol.

[3] = system: gp120 model of painful HIV-associated peripheral neuropathy; experiment: Thermal hyperalgesia (hind paw withdrawal latency), gp120 model; type: in vivo, rat; conditions: for thermal hyperalgesia, difference from control: p ≤0.05
Source text: (§1) This study evaluated the effects of topical mepivacaine in DMSO painful HIV-associated peripheral neuropathy. HIV peripheral neuropathy in the rat was induced by sciatic nerve exposure to gp120.
(§2) Under anesthesia, the left sciatic nerve of male rats was isolated by blunt dissection of the biceps, without damaging the perineurium. The HIV-1 viral envelope protein, gp120 was embedded in a carrier matrix and delivered directly to the sciatic nerve. The muscular layer was closed using 3-0 silk and the skin sealed with veterinarian-grade cyanoacrylate.
(§3) A gauze pad was saturated with either mepivacaine in DMSO (vehicle) or vehicle alone and secured to the left plantar hind paw for 5 min. Rats were immediately tested after removal of the pad. Rats were then tested again at 5, 10 and 15 minutes after removal of the pad. Mepivacaine was tested at various concentrations. The treatment assignment was masked. A period of 48 hrs was allowed between retesting of the rats. The continued presence of hyperalgesia in the rats was confirmed by pre-drug application baseline testing on each test day.
(§4) Plantar hind paw response to noxious heat and pressure application was evaluated before and one week following sciatic nerve surgery to confirm onset of hyperalgesia following gp120 administration. Following 15-20 min acclimation in the test chamber, a thermal heat stimulus was aimed at the mid-plantar hind paw as rats stand on a glass surface. The latency to a withdrawal response was recoded electronically. The stimulus intensity was adjusted to result in mean pre-surgical baseline latencies of approximately 12 seconds. Each hind paw was tested once to obtain a hind paw withdrawal latency. Mechanical allodynia was assessed by application of increasing pressure (32 g/sec) to the plantar hind paw over time. The withdrawal threshold (measured in grams) was reached when the rat withdrew its paw from the apparatus. The pre-surgical withdrawal threshold of naïve rats was about 175 g. Each hind paw was tested once to obtain a hind paw withdrawal threshold. Antinociception, or analgesia, was defined quantally as an increase in response over baseline.
(§5) Statistical analysis for thermal hyperalgesia and mechanical allodynia were performed and statistical significance was declared if the two-sided p-value was ≤0.05. All computations were performed using SigmaStat™ for Windows™, Version 3.5.

[4] = system: isolated dorsal root ganglion neurons from chick embryos; conditions: cited from earlier work
[5] = system: combined HIV viral envelope protein (gp120) and NRTI model of painful HIV-associated peripheral neuropathy; experiment: Mechanical allodynia, zalcitabine plus gp120 model; type: in vivo, rat; conditions: for mechanical allodynia, difference from control: p ≤0.05
Source text: (§6) This study evaluated the effects of topical mepivacaine in DMSO painful HIV-associated peripheral neuropathy. HIV peripheral neuropathy in the rat was induced by sciatic nerve exposure to zalcitabine plus gp120.
(§7) Under anesthesia, the left sciatic nerve of male rats was isolated by blunt dissection of the biceps, without damaging the perineurium. The HIV-1 viral envelope protein, gp120 was embedded in a carrier matrix and delivered directly to the sciatic nerve. The muscular layer was closed using 3-0 silk and the skin sealed with veterinarian-grade cyanoacrylate. Rats received intravenous tail injection of zalcitabine.
as §3
as §4, with “Each hind paw was tested once to obtain a hind paw withdrawal threshold. Antinociception, or analgesia, was defined quantally as an increase in response over baseline.” left out

[6] = in vivo; cited from earlier work
[7] = system: tail-flick model; experiment: Tail-flick assay; type: in vivo, mice; conditions: for tail-flick latency, difference from control: p ≤0.05
Description: This study evaluated the effects of topical in DMSO mepivacaine in the tail-flick model.
Male mice were maintained on a 12-h light/dark cycle with food and water available ad libitum. Mice were housed in groups of five until testing
Drugs were given topically in DMSO (vehicle) on the tail by immersion of the tail in treatment solution for 5 minutes. Tail-flick latencies were then determined on the region of the tail immersed in the drug, unless otherwise stated. Mice were immediately tested after removal of the tail from the treatment solution and retested at 5 and 10 minutes. Mepivacaine was tested at various concentrations. The treatment assignment was masked.
Analgesia was assessed with the tail-flick assay. Responses were measured by exposing the distal part of the tail to a thermal stimulus, and the latency of exposure was determined. The tail flick latency is the time interval between onset of the heat stimulus and withdrawal of the tail the thermal stimulus. Baseline latencies ranged from 2 to 3 s. Testing was performed immediately after termination of topical administration into the tail and at 5 and 10 minutes thereafter. Antinociception, or analgesia, was defined quantally as an increase in response over baseline.
Statistical analysis was performed and statistical significance was declared if the two-sided p-value was ≤0.05. All computations were performed using SigmaStat™ for Windows™, Version 3.5.

[8] = cited from earlier work
[9] = in vivo; cited from earlier work; remark: listed apart in the source
[10] = system: gp120 model of painful HIV-associated peripheral neuropathy; experiment: Mechanical allodynia (hind paw withdrawal threshold), gp120 model; type: in vivo, rat; conditions: for mechanical allodynia, difference from control: p ≤0.05
Source text: as §1, §2, §3, §4, §5

[11] = system: combined HIV viral envelope protein (gp120) and NRTI model of painful HIV-associated peripheral neuropathy; experiment: Thermal hyperalgesia, zalcitabine plus gp120 model; type: in vivo, rat; conditions: for thermal hyperalgesia, difference from control: p ≤0.05
Source text: as §6, §7, §3
as §4, with “Each hind paw was tested once to obtain a hind paw withdrawal threshold. Antinociception, or analgesia, was defined quantally as an increase in response over baseline.” left out

[12] = system: rat sciatic nerve; conditions: cited from earlier work
[13] = system: postherpetic neuralgia; conditions: Sindrup and Jensen; cited from earlier work
[14] = topical in DMSO, pad on hind paw 5 min

## Cc1cccc(C)c1NC(=O)C1CCCCN1C.Cl (racemic) [mepivacaine hydrochloride, 2-piperidinecarboxamide, N(2,6-dimethylphenyl)-1-methyl-, monohydrochloride]
[1]; HPMC gels pH 4.5-7.5
  formulation pH at which the maximum flux was obtained: 7.5

## Cc1cccc(C)c1NC(=O)C1CCCCN1C (stereo not drawn) [Mepivacaine, 1-methyl-2′,6′-pipecoloxylidide]
[2]
  solubility in propylene glycol: not sufficiently soluble
[3]; 2 mg/mL
  thermal hyperalgesia, difference from control: significantly different from control
[3]; 4 mg/mL
  thermal hyperalgesia, difference from control: significantly different from control
[3]; 8 mg/mL
  thermal hyperalgesia, difference from control: significantly different from control
[3]; [14]
  antinociceptive effects for thermal hyperalgesia: short lived and variable antinociceptive effects
[4]
  IC50 in the growth cone collapse assay, rank among lidocaine, bupivacaine, mepivacaine, ropivacaine: highest
[1]; carvone 0.5% w/w, pH 4.5
  Total flux: 0.4251 mg/cm^2/hr
[1]; carvone 0.5% w/w, pH 5.5
  Total flux: 0.5847 mg/cm^2/hr
[1]; carvone 0.5% w/w, pH 6.8
  Total flux: 0.7245 mg/cm^2/hr
[1]; carvone 0.5% w/w, pH 7.5
  Total flux: 0.8035 mg/cm^2/hr
[1]; no carvone, pH 4.5
  Total flux: 0.4095 mg/cm^2/hr
[1]; no carvone, pH 5.5
  Total flux: 0.6000 mg/cm^2/hr
[1]; no carvone, pH 6.8
  Total flux: 0.7531 mg/cm^2/hr
[1]; no carvone, pH 7.5
  Total flux: 0.7442 mg/cm^2/hr
[5]; 2 mg/mL
  mechanical allodynia, difference from control: significantly different from control
[5]; 4 mg/mL
  mechanical allodynia, difference from control: significantly different from control
[5]; [14]
  antinociceptive effects for mechanical allodynia: short lived and variable antinociceptive effects
[6]
  irritation or tissue damage: does not ordinarily produce irritation or tissue damage
  methemoglobinemia: does not cause methemoglobinemia
[7]; 4 mg/mL
  tail-flick latency, difference from control: significantly different from control
[7]; 8 mg/mL
  tail-flick latency, difference from control: significantly different from control
[7]; tail immersed 5 minutes in DMSO solution
  analgesia in tail-flick assay: short lived and variable analgesia
[8]
  solubility in EtOH: 40 g/100 ml
[9]
  administered dose excreted into the bile as metabolites: over 50%
  bound to plasma proteins: approximately 75%
  excreted unchanged in the urine: less than 10%
[10]; 2 mg/mL in DMSO
  mechanical allodynia, difference from control: significantly different from control
[10]; 4 mg/mL in DMSO
  mechanical allodynia, difference from control: significantly different from control
[10]; 8 mg/mL in DMSO
  mechanical allodynia, difference from control: significantly different from control
[10]; [14]
  antinociceptive effects for mechanical allodynia: short lived and variable antinociceptive effects
[11]; 2 mg/mL
  thermal hyperalgesia, difference from control: significantly different from control
[11]; 4 mg/mL
  thermal hyperalgesia, difference from control: significantly different from control
[11]; [14]
  antinociceptive effects, section Thermal Hyperalgesia (text says mechanical allodynia): short lived and variable antinociceptive effects

## CCCCN1CCCCC1C(=O)Nc1c(C)cccc1C (stereo not drawn) [bupivacaine]
[12]; 0.75% (23.1 mM)
  neuronal damage in rat sciatic nerve: do not

## CCN(CC)CC(=O)Nc1c(C)cccc1C [lidocaine]
[4]
  IC50 in the growth cone collapse assay, rank among lidocaine, bupivacaine, mepivacaine, ropivacaine: lowest
[12]; 80 mM (2.17%)
  neuronal damage in rat sciatic nerve: induced neuronal damage

## COc1ccc2c3c1O[C@H]1C(=O)CC[C@@]4(O)[C@@H](C2)N(C)CC[C@]314 [oxycodone]
[13]
  NNT values in postherpetic neuralgia: 2.5

## COc1cc(CNC(=O)CCCC/C=C/C(C)C)ccc1O [topical capsaicin, capsaicin]
[13]
  NNT values in postherpetic neuralgia: 5.3
